Assay results taken from patent publication US20260347338A1, “PYRIMIDINE/PYRIDINE DERIVATIVES OR SALTS THEREOF AND PHARMACEUTICAL COMPOSITIONS COMPRISING THE SAME” (YUHAN CORPORATION, priority 2023, published 2026).
Structures can show the parent of a compound that is named as a salt.

Molecular target: T1, human recombinant HPK1 (Homo sapiens, UniProt Q92918)
T1 construct: purchased BPS Bioscience
Test: Inhibitory activity against human recombinant HPK1 (TR-FRET)
Type: biochemical
Details: ULight-p70S6K peptide, ATP at Km, room temperature, 1 hour, 0.32 to 1000 nM compound
How it was run: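 IC50 classes A–D use 10, 50 and 100 nM cut-offs, derived from TR-FRET signal inhibition relative to DMSO controls. Human recombinant HPK1 phosphorylated ULight-p70S6K peptide at Km ATP for 1 h, room temperature, pH 7.4; test range 0.32–1000 nM final, detection with Eu-labelled antibody after EDTA quench.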

T1 sequence (Q92918 whole entry): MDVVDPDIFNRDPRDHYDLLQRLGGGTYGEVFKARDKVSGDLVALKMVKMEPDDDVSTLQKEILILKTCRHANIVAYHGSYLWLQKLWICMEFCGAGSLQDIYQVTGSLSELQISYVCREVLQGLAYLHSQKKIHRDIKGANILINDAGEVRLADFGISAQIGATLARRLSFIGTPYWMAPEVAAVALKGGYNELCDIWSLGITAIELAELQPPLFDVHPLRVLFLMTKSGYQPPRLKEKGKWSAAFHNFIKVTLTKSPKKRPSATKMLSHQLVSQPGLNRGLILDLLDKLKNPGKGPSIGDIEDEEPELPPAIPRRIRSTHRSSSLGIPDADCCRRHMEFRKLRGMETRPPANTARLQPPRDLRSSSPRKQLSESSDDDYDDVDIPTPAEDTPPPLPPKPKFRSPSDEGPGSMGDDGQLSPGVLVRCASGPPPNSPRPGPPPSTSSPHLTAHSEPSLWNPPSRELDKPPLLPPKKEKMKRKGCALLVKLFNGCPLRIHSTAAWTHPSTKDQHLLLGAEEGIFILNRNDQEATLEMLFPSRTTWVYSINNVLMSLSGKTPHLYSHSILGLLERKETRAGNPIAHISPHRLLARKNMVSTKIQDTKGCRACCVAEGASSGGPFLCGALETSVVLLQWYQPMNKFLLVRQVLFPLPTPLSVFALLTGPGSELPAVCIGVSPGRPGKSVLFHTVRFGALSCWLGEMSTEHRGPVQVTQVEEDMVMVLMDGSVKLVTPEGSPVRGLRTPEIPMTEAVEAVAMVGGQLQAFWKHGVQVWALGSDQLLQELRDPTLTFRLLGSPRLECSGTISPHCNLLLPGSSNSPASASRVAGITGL

Structure (SMILES) | IC50 [µM]
COc1cccc(F)c1-c1nccc(Nc2cc(N3CC[C@H](N)[C@@H](F)C3)c(-c3cnn(C(F)F)c3)cn2)n1 [Example 302, N-(4-((3S,4S)-4-amino-3-fluoropiperidin-1-yl)-5-(1-(difluoromethyl)-1H-pyrazol-4-yl)pyridin-2-yl)-2-(2-fluoro-6-methoxyphenyl)pyrimidin-4-amine hydrochloride] | ≤ 0.01
COc1cccc(F)c1-c1nc(Nc2cc(N3CC[C@H](F)[C@H](N)C3)c(-c3cnn(C(F)F)c3)cn2)ccc1C#N [Example 322, 6-((4-((3R,4S)-3-amino-4-fluoropiperidin-1-yl)-5-(1-(difluoromethyl)-1H-pyrazol-4-yl)pyridin-2-yl)amino)-2-(2-fluoro-6-methoxyphenyl)nicotinonitrile hydrochloride] | ≤ 0.01
COc1cc(C(=O)N2CC[C@@H](F)C2)cc(F)c1-c1nccc(Nc2cc(N3CCC[C@H](N)C3)c(-c3cnn(C(F)F)c3)cn2)n1 [Example 251, (4-(4-((4-((S)-3-aminopiperidin-1-yl)-5-(1-(difluoromethyl)-1H-pyrazol-4-yl)pyridin-2-yl)amino)pyrimidin-2-yl)-3-fluoro-5-methoxyphenyl)((R)-3-fluoropyrrolidin-1-yl)methanone] | ≤ 0.01
COc1cccc(F)c1-c1nc(Nc2cc(N3CCC[C@H](O)C3)c(C(=O)NC3CC(O)C3)cn2)ccc1[N+](=O)[O-] (stereo partly drawn) [Example 196, 6-((6-(2-fluoro-6-methoxyphenyl)-5-nitropyridin-2-yl)amino)-N-(3-hydroxycyclobutyl)-4-((S)-3-hydroxypiperidin-1-yl)nicotinamide] | ≤ 0.01
COc1cc(F)cc(F)c1-c1nccc(Nc2cc(N3CCC[C@H](N)C3)c(-c3cnn(CC(F)F)c3)cn2)n1 [Example 158, (S)-N-(4-(3-aminopiperidin-1-yl)-5-(1-(2,2-difluoroethyl)-1H-pyrazol-4-yl)pyridin-2-yl)-2-(2,4-difluoro-6-methoxyphenyl)pyrimidin-4-amine hydrochloride] | ≤ 0.01
N[C@H]1CCCN(c2cc(Nc3ccnc(-c4cc5nccnc5cc4F)n3)ncc2-c2ccc(C3CCOCC3)nc2)C1 [Example 99, (S)-4-(3-aminopiperidin-1-yl)-N-(2-(7-fluoroquinoxalin-6-yl)pyrimidin-4-yl)-6′-(tetrahydro-2H-pyran-4-yl)-[3,3′-bipyridin]-6-amine hydrochloride] | 0.01 to 0.05
COc1cc(F)cc(F)c1-c1nccc(Nc2cc(N3CCC[C@H](O)C3)c(-c3cnn(CC(F)F)c3)cn2)n1 [Example 172, (S)-1-(2-((2-(2,4-difluoro-6-methoxyphenyl)pyrimidin-4-yl)amino)-5-(1-(2,2-difluoroethyl)-1H-pyrazol-4-yl)pyridin-4-yl)piperidin-3-ol] | ≤ 0.01
COc1cccc(F)c1-c1nccc(Nc2cc(N3CCC[C@H](N)C3)c(-c3ccc(C(=O)N4CCOCC4)cc3)cn2)n1 [Example 255, (S)-(4-(4-(3-aminopiperidin-1-yl)-6-((2-(2-fluoro-6-methoxyphenyl)pyrimidin-4-yl)amino)pyridin-3-yl)phenyl)(morpholino)methanone hydrochloride] | ≤ 0.01
COc1cc(C(=O)N(C)C)cc(F)c1-c1nccc(Nc2cc(N3CCC[C@H](N)C3)c(-c3cnn(C(F)F)c3)cn2)n1 [Example 187, (S)-4-(4-((4-(3-aminopiperidin-1-yl)-5-(1-(difluoromethyl)-1H-pyrazol-4-yl)pyridin-2-yl)amino)pyrimidin-2-yl)-3-fluoro-5-methoxy-N,N-dimethylbenzamide hydrochloride] | ≤ 0.01
COc1cccc(F)c1-c1nccc(Nc2cc(N3CCC[C@H](O)C3)c(-c3ccc(C(F)(F)F)nc3)cn2)n1 [Example 57, (S)-1-(6-((2-(2-fluoro-6-methoxyphenyl)pyrimidin-4-yl)amino)-6′-(trifluoromethyl)-[3,3′-bipyridin]-4-yl)piperidin-3-ol] | 0.05 to 0.1
COc1cccc(F)c1-c1nccc(Nc2cc(N3CCC[C@H](O)C3)c(-c3ccc(OC4CCN(C)CC4)cn3)cn2)n1 [Example 81, (S)-1-(6′-((2-(2-fluoro-6-methoxyphenyl)pyrimidin-4-yl)amino)-5-((1-methylpiperidin-4-yl)oxy)-[2,3′-bipyridin]-4′-yl)piperidin-3-ol] | > 0.1
COc1cccc(F)c1-c1nccc(Nc2cc(N3CCC[C@@H](O)C3)c(C#Cc3cnn(C(F)(F)F)c3)cn2)n1 [Example 9, (R)-1-(2-((2-(2-fluoro-6-methoxyphenyl)pyrimidin-4-yl)amino)-5-((1-(trifluoromethyl)-1H-pyrazol-4-yl)ethynyl)pyridin-4-yl)piperidin-3-ol] | 0.01 to 0.05
COc1cc(F)cc(F)c1-c1nccc(Nc2cc(N3CCC[C@H](O)C3)c(C#Cc3cnn(C(F)F)c3)cn2)n1 [Example 217, (S)-1-(2-((2-(2,4-difluoro-6-methoxyphenyl)pyrimidin-4-yl)amino)-5-((1-(difluoromethyl)-1H-pyrazol-4-yl)ethynyl)pyridin-4-yl)piperidin-3-ol] | ≤ 0.01
COc1cccc(F)c1-c1nccc(Nc2cc(N3CCC[C@H](N)C3)c(-c3ccc4c(c3)NC(=O)C(C)O4)cn2)n1 (stereo partly drawn) [Example 270, 6-(4-((S)-3-aminopiperidin-1-yl)-6-((2-(2-fluoro-6-methoxyphenyl)pyrimidin-4-yl)amino)pyridin-3-yl)-2-methyl-2H-benzo[b][1,4]oxazin-3(4H)-one hydrochloride] | ≤ 0.01
COc1cccc(F)c1-c1nccc(Nc2cc(N3CCC[C@H](N)C3)c(-c3cnn(CCN4CCCC4)c3)cn2)n1 [Example 163, (S)-N-(4-(3-aminopiperidin-1-yl)-5-(1-(2-(pyrrolidin-1-yl)ethyl)-1H-pyrazol-4-yl)pyridin-2-yl)-2-(2-fluoro-6-methoxyphenyl)pyrimidin-4-amine hydrochloride] | ≤ 0.01
COc1cccc(F)c1-c1nccc(Nc2cc(N3CCC[C@H](N)C3)c(-c3ccc(C(=O)N4CCNCC4)cc3)cn2)n1 [Example 265, (S)-(4-(4-(3-aminopiperidin-1-yl)-6-((2-(2-fluoro-6-methoxyphenyl)pyrimidin-4-yl)amino)pyridin-3-yl)phenyl)(piperazin-1-yl)methanone hydrochloride] | ≤ 0.01
O[C@H]1CCCN(c2cc(Nc3ccnc(-c4cc5nccnc5cc4F)n3)ncc2-c2cnn(C3CCOCC3)c2)C1 [Example 69, (S)-1-(2-((2-(7-fluoroquinoxalin-6-yl)pyrimidin-4-yl)amino)-5-(1-(tetrahydro-2H-pyran-4-yl)-1H-pyrazol-4-yl)pyridin-4-yl)piperidin-3-ol] | ≤ 0.01
COc1cccc(F)c1-c1nc(Nc2cc(N3CCC[C@H](O)C3)c(-c3cnn(C4CCOCC4)c3)cn2)ccc1C#N [Example 59, 2-(2-fluoro-6-methoxyphenyl)-6-((4-((S)-3-hydroxypiperidin-1-yl)-5-(1-(tetrahydro-2H-pyran-4-yl)-1H-pyrazol-4-yl)pyridin-2-yl)amino)nicotinonitrile] | ≤ 0.01
COc1cccc(F)c1-c1nccc(Nc2cc(N3CCC[C@H](N)C3)c(-c3cccc(C(=O)N(C)C)c3)cn2)n1 [Example 280, (S)-3-(4-(3-aminopiperidin-1-yl)-6-((2-(2-fluoro-6-methoxyphenyl)pyrimidin-4-yl)amino)pyridin-3-yl)-N,N-dimethylbenzamide hydrochloride] | ≤ 0.01
COc1cc(C(=O)N2CCC(F)(F)C2)cc(F)c1-c1nccc(Nc2cc(N3CCC[C@H](O)C3)c(-c3cnn(C(F)F)c3)cn2)n1 [Example 234, (S)-(4-(4-((5-(1-(difluoromethyl)-1H-pyrazol-4-yl)-4-(3-hydroxypiperidin-1-yl)pyridin-2-yl)amino)pyrimidin-2-yl)-3-fluoro-5-methoxyphenyl)(3,3-difluoropyrrolidin-1-yl)methanone] | ≤ 0.01
COc1cccc(F)c1-c1nc(Nc2cc(N3CCC[C@H](N)C3)c(-c3cnn(C(F)(F)F)c3)cn2)ccc1[N+](=O)[O-] [Example 154, 4-((S)-3-aminopiperidin-1-yl)-N-(6-(2-fluoro-6-methoxyphenyl)-5-nitropyridin-2-yl)-5-(1-(trifluoromethyl)-1H-pyrazol-4-yl)pyridin-2-amine hydrochloride] | ≤ 0.01
COc1cc(F)cc(F)c1-c1nccc(Nc2cc(N3CC[C@@H](O)[C@H](N)C3)c(-c3cnn(C(F)F)c3)cn2)n1 [Example 213, (3R,4R)-3-amino-1-(2-((2-(2,4-difluoro-6-methoxyphenyl)pyrimidin-4-yl)amino)-5-(1-(difluoromethyl)-1H-pyrazol-4-yl)pyridin-4-yl)piperidin-4-ol hydrochloride] | ≤ 0.01
COc1cccc(F)c1-c1nccc(Nc2cc(N3CCC[C@H](O)C3)c(C#CC3CCOCC3)cn2)n1 [Example 11, (S)-1-(2-((2-(2-fluoro-6-methoxyphenyl)pyrimidin-4-yl)amino)-5-((tetrahydro-2H-pyran-4-yl)ethynyl)pyridin-4-yl)piperidin-3-ol] | ≤ 0.01
COc1cccc(F)c1-c1nc(Nc2cc(N3CCC[C@H](O)C3)c(-c3cnn(C4CCN(C)CC4)c3)cn2)ccc1C#N [Example 325, 2-(2-fluoro-6-methoxyphenyl)-6-((4-((S)-3-hydroxypiperidin-1-yl)-5-(1-(1-methylpiperidin-4-yl)-1H-pyrazol-4-yl)pyridin-2-yl)amino)nicotinonitrile] | ≤ 0.01
COc1cc(F)cc(F)c1-c1nc(Nc2cc(N3CCC[C@H](O)C3)c(C#CC3CCOCC3)cn2)ccc1[N+](=O)[O-] [Example 225, (3S)-1-(2-((6-(2,4-difluoro-6-methoxyphenyl)-5-nitropyridin-2-yl)amino)-5-((tetrahydro-2H-pyran-4-yl)ethynyl)pyridin-4-yl)piperidin-3-ol] | ≤ 0.01
COc1cccc(F)c1-c1nc(Nc2cc(N3CCC[C@H](N)C3)c(-c3cnn(C4CCOCC4)c3)cn2)ccc1C#N [Example 300, 6-((4-((S)-3-aminopiperidin-1-yl)-5-(1-(tetrahydro-2H-pyran-4-yl)-1H-pyrazol-4-yl)pyridin-2-yl)amino)-2-(2-fluoro-6-methoxyphenyl)nicotinonitrile hydrochloride] | ≤ 0.01
